Square brackets hold non-standard residues; d marks the D form. Peptide text beside a SMILES is read from it. Nle = CCCC[C@H](N)C(=O)O
B1: GLP-2 Variant #4 (peptide)
peptide: H-HGEGSFSDE[Nle]NTILDLLAARDFINWLIQTKITD-NH2
SMILES: CCCC[C@H](NC(=O)[C@H](CCC(=O)O)NC(=O)[C@H](CC(=O)O)NC(=O)[C@H](CO)NC(=O)[C@H](Cc1ccccc1)NC(=O)[C@H](CO)NC(=O)CNC(=O)[C@H](CCC(=O)O)NC(=O)CNC(=O)[C@@H](N)Cc1c[nH]cn1)C(=O)N[C@@H](CC(N)=O)C(=O)N[C@H](C(=O)N[C@H](C(=O)N[C@@H](CC(C)C)C(=O)N[C@@H](CC(=O)O)C(=O)N[C@@H](CC(C)C)C(=O)N[C@@H](CC(C)C)C(=O)N[C@@H](C)C(=O)N[C@@H](C)C(=O)N[C@@H](CCCNC(=N)N)C(=O)N[C@@H](CC(=O)O)C(=O)N[C@@H](Cc1ccccc1)C(=O)N[C@H](C(=O)N[C@@H](CC(N)=O)C(=O)N[C@@H](Cc1c[nH]c2ccccc12)C(=O)N[C@@H](CC(C)C)C(=O)N[C@H](C(=O)N[C@@H](CCC(N)=O)C(=O)N[C@H](C(=O)N[C@@H](CCCCN)C(=O)N[C@H](C(=O)N[C@H](C(=O)N[C@@H](CC(=O)O)C(N)=O)[C@@H](C)O)[C@@H](C)CC)[C@@H](C)O)[C@@H](C)CC)[C@@H](C)CC)[C@@H](C)CC)[C@@H](C)O

Assays:
GLP-2 receptor [1] = target: T1, GLP-2 receptor (Homo sapiens, UniProt O95838); assay: GLP-2 receptor Cell Based Assay (CBA); conditions: Table 7
T1 sequence (O95838 1-553): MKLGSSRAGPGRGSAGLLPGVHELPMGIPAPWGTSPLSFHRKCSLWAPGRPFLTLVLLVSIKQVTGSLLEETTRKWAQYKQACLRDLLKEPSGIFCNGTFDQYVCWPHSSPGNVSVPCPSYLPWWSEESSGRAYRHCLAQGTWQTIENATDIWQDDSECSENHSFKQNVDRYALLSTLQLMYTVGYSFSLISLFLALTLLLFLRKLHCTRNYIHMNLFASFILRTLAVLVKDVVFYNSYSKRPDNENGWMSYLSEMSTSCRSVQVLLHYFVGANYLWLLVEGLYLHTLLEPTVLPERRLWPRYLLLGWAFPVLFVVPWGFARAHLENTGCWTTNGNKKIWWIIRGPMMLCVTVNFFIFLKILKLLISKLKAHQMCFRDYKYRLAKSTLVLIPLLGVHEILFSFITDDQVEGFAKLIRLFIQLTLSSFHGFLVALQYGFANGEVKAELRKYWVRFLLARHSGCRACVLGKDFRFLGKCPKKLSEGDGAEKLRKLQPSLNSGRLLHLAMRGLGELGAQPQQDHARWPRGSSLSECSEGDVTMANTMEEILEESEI
Method: Evaluation of in vitro binding affinity of the different peptides was assessed by using Cell Based Assay (CBA) in the presence of escalating doses of the different peptides.

small intestine = assay: Intestine weight model in rats; type: in vivo, SD rats; conditions: modified peptides; two injections on days 1 & 3 at 1 mg/kg; intestine weight on day 6
Method: In the pharmacology study, the conjugates were injected subcutaneously twice, on days 1 and 3 at 1 mg/kg (peptide dose) and intestine weight was performed on day 6. In addition to the PEGylated conjugates, GLP-2-Gly2 was injected at the same dose and regimen for comparison. The average of the intestine weight of each group was compared to that of the vehicle group.
In a different study, several of the PEGylated teduglutide were injected as a single dose at 1 mg/kg and the intestine weight performed on day 6.
Pharmacology and pharmacokinetic studies were performed with the most promising GLP-2 variants to evaluate their efficacy and longevity, respectively. The intestine weight model in rats was conducted to evaluate efficacy, by measuring percent increase of the intestine weight of treated animals over the vehicle group. In this study, the peptides were injected twice, on days 1 and 3 at 1 mg/kg and the intestine weight was conducted on day 6.
PEG20-FMS-V6, PEG20-Fmoc-V6 and PEG40-FMS-V6 were injected once at 1 mg/kg dose on day 1, while group D was also injected twice on days 1 & 3 at 1 mg/kg. The intestine weight was performed on day 6.
Three different reversible PEGylated GLP-2 variants using mutated peptide #4 were injected at 2 mg/kg (peptide dose), once every 6 days for 12 days. On the 12th day the intestine was weighted and compared to the control group. PEG30-FMS-V4 was injected at 0.5 mg/kg as well to evaluate the efficacy dose range.
In addition to PEG30-FMS-V4 and PEG30-Fmoc-V4 that have been pharmacology evaluated by small intestinal weight evaluation (As shown in Example 5), four other reversible PEGylated variant 4 (“V4”) conjugates and two reversible linker-V4 conjugates were synthesized. All the above were injected to 6 normal SD rats/group once at 2 mg/kg (peptide dose), while on the 6th day, animals were scarified, and the small intestine was weighted followed by histopathology evaluation. […] Therefore, slices from three areas of the intestine (duodenum, jejunum and ilium) were stained with hematoxylin and eosin and at least 7 Crypts+Villi length/slice were measured. The averaged Villi+Crypt length of each treatment group (n=6) was compared to the vehicle group (negative control) and calculated as percentage increase over vehicle.
Additional studies were conducted to evaluate the efficacy of the V4 peptide and the reversible MAL-FMS-V4. The long acting effect of V4 and the conjugates were evaluated at Day 6 and Day 10 following treatment (Study reference 15203). All test groups (n=9) were injected SC with 2 mg/kg peptide content at Day 1. At Days 6 and 10, animals were sacrificed and the small intestine underwent histopathology evaluation (6 animals for Day 6, 3 animals for Day 10). FIGS. 12 and 13 show the pharmacology effect of different V4 conjugates and Apraglutide and Glepaglutide as measured by the percent increase of small intestine weight and crypts plus villi length over vehicle, respectively.
To further evaluate the pharmacology efficacy of V4 and Cys-FMS-V4, an experiment was performed to test their acute and prolonged effect on the small intestine (Study reference 15205). In addition, V4 and Cys-FMS-V4 were administrated as a single SC injection on Day 1 at 3 different doses (0.5, 2.0 or 8.0 mg/kg peptide content, 6 rats per group) to assess the dose dependence effect. The pharmacological effect on small intestine weight and villi plus crypts length was measured at Days 3, 7 and 14, and the results are presented in FIGS. 15 and 16. […] It should be noted that this acute response was higher for V4 compared to Cys-FMS-V4 at all 3 dose levels.

[2] = Stability of GLP-2 analogues on incubation at 37° C. (appearance, O.D. reading, RP-HPLC); type: physicochemical; conditions: following 48 h incubation at 37° C.; for Stability via RP-HPLC main peak: change of main peak
Method: The GLP-2 analogues were tested for stability via appearance, O.D. reading (A.280, and A.325) and RP-HPLC (purity, and peak area) following t=0, 1 day, and 48 h incubation at 37° C.

[3] = Pharmacokinetics of modified GLP-2 variants in rats; type: in vivo; conditions: rat, serum, peptide dose 15 mg/kg
[4] = Solubility and stability in different buffer systems, concentrations, incubation and freeze-thaw; type: physicochemical; conditions: Histidine and NaPi, pH 6.8 to 7.5; 1-10 mg/mL; up to 3 days at 37° C.; up to three freeze-thaw cycles
GLP-2 receptor [5] = target: T2, GLP-2 receptor (UniProt O95838 1-553, limits assumed); assay: cell-based or functional assay
T2 sequence (looked up): T1 sequence (O95838 1-553)

GLP-2 receptor [6] = target: T2, GLP-2 receptor; assay: cell-based or functional assay; remark: listed apart in the source

Molecule	EC50 Ratio to Teduglutide (GLP-2 receptor [1])	Increase of intestine weight over vehicle (%) (small intestine)	Solubility via appearance [2]	half-life [3] [h]	CMC perspective, combining purity and solubility [4]	Stability via RP-HPLC main peak [2]	EC50 (nM) Average, GLP2-receptor CBA, 3 independent assays (GLP-2 receptor [5]) [nM]	EC50 Ratio to Teduglutide, GLP2-receptor CBA (GLP-2 receptor [5]) [fold]	EC50 Ratio to Teduglutide, CBA (GLP-2 receptor [6]) [fold]	EC50 [nM], Cell Based Assay (CBA), cells overexpressing the GLP-2 receptor (GLP-2 receptor [6]) [nM]
CCCC[C@H](NC(=O)[C@H](CCC(=O)O)NC(=O)[C@H](CC(=O)O)NC(=O)[C@H](CO)NC(=O)[C@H](Cc1ccccc1)NC(=O)[C@H](CO)NC(=O)CNC(=O)[C@H](CCC(=O)O)NC(=O)CNC(=O)[C@@H](N)Cc1c[nH]cn1)C(=O)N[C@@H](CC(N)=O)C(=O)N[C@H](C(=O)N[C@H](C(=O)N[C@@H](CC(C)C)C(=O)N[C@@H](CC(=O)O)C(=O)N[C@@H](Cc1ccc(O)cc1)C(=O)N[C@@H](CC(C)C)C(=O)N[C@@H](C)C(=O)N[C@@H](C)C(=O)N[C@@H](CCCNC(=N)N)C(=O)N[C@@H](CC(=O)O)C(=O)N[C@@H](Cc1ccccc1)C(=O)N[C@H](C(=O)N[C@@H](CC(N)=O)C(=O)N[C@@H](Cc1c[nH]c2ccccc12)C(=O)N[C@@H](CC(C)C)C(=O)N[C@H](C(=O)N[C@@H](CCC(N)=O)C(=O)N[C@H](C(=O)N[C@@H](CCCCN)C(=O)N[C@H](C(=O)N[C@H](C(=O)N[C@@H](CC(=O)O)C(N)=O)[C@@H](C)O)[C@@H](C)CC)[C@@H](C)O)[C@@H](C)CC)[C@@H](C)CC)[C@@H](C)CC)[C@@H](C)O [Variant 5] (H-HGEGSFSDE[Nle]NTILDYLAARDFINWLIQTKITD-NH2)	2.4	10	V5: clear	6.5						
CCCC[C@H](NC(=O)[C@H](CCC(=O)O)NC(=O)[C@H](CC(=O)O)NC(=O)[C@H](CO)NC(=O)[C@H](Cc1ccccc1)NC(=O)[C@H](CO)NC(=O)CNC(=O)[C@H](CCC(=O)O)NC(=O)CNC(=O)[C@@H](N)Cc1c[nH]cn1)C(=O)N[C@@H](CC(N)=O)C(=O)N[C@H](C(=O)N[C@H](C(=O)N[C@@H](CC(C)C)C(=O)N[C@@H](CC(=O)O)C(=O)N[C@@H](CC(C)C)C(=O)N[C@@H](CC(C)C)C(=O)N[C@@H](C)C(=O)N[C@@H](C)C(=O)N[C@@H](CCCNC(=N)N)C(=O)N[C@@H](CC(=O)O)C(=O)N[C@@H](Cc1ccccc1)C(=O)N[C@H](C(=O)N[C@@H](CC(N)=O)C(=O)N[C@@H](Cc1c[nH]c2ccccc12)C(=O)N[C@@H](CC(C)C)C(=O)N[C@H](C(=O)N[C@@H](CCC(N)=O)C(=O)N[C@H](C(=O)N[C@@H](CCCCN)C(=O)N[C@H](C(=O)N[C@H](C(=O)N[C@@H](CC(=O)O)C(=O)O)[C@@H](C)O)[C@@H](C)CC)[C@@H](C)O)[C@@H](C)CC)[C@@H](C)CC)[C@@H](C)CC)[C@@H](C)O [Variant 6] (H-HGEGSFSDE[Nle]NTILDLLAARDFINWLIQTKITD-OH)	3.8	43	V6: clear	12.1	outperformed the rest of the peptides	(~1.5%)				
CCCC[C@H](NC(=O)[C@H](CCC(=O)O)NC(=O)[C@H](CC(=O)O)NC(=O)[C@H](CO)NC(=O)[C@H](Cc1ccccc1)NC(=O)[C@H](CO)NC(=O)CNC(=O)[C@H](CCC(=O)O)NC(=O)CNC(=O)[C@@H](N)Cc1c[nH]cn1)C(=O)N[C@@H](CC(N)=O)C(=O)N[C@H](C(=O)N[C@H](C(=O)N[C@@H](CC(C)C)C(=O)N[C@@H](CC(=O)O)C(=O)N[C@@H](Cc1ccc(O)cc1)C(=O)N[C@@H](CC(C)C)C(=O)N[C@@H](C)C(=O)N[C@@H](C)C(=O)N[C@@H](CCCNC(=N)N)C(=O)N[C@@H](CC(=O)O)C(=O)N[C@@H](Cc1ccccc1)C(=O)N[C@H](C(=O)N[C@@H](CC(N)=O)C(=O)N[C@@H](Cc1c[nH]c2ccccc12)C(=O)N[C@@H](CC(C)C)C(=O)N[C@H](C(=O)N[C@@H](CCC(N)=O)C(=O)N[C@H](C(=O)N[C@@H](CCCCN)C(=O)N[C@H](C(=O)N[C@H](C(=O)N[C@@H](CC(=O)O)C(=O)O)[C@@H](C)O)[C@@H](C)CC)[C@@H](C)O)[C@@H](C)CC)[C@@H](C)CC)[C@@H](C)CC)[C@@H](C)O [Variant 7] (H-HGEGSFSDE[Nle]NTILDYLAARDFINWLIQTKITD-OH)	3.0	12	V7: clear	5.8	outperformed the rest of the peptides	(no change				
B1							1	1.8	3.8	21.6
